Columns and labels:
Format in all cases: biochemical
c-Met kinase = target: T1, c-Met kinase (Homo sapiens, UniProt P08581); experiment: c-Met kinase assay (33P incorporation into Poly(Glu-Tyr)); settings: 500 nM test compound
T1 construct: recombinant N-terminal 6×His-tagged c-Met kinase domain construct expressed from baculovirus; 6xHis (N); made in house
In short: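 Single-concentration test (500 nM compound) at 30° C for 30 min, pH 7.0 MOPS buffer with 100 μM ATP and [33P]-γ-ATP. Enzyme was baculovirus-expressed 6×His c-Met kinase domain (5 ng), substrate Poly(Glu-Tyr) 4:1. Inhibition percentage derived from filter-bound counts relative to DMSO control.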

VEGFR2 kinase = target: T2, VEGFR2 kinase (Homo sapiens, UniProt P35968); experiment: VEGFR2 kinase assay (33P incorporation into Poly(Glu-Tyr)); settings: 500 nM test compound; read-out: Inhibition at 500 nM (%) VEGFr-2
T2 construct: recombinant N-terminal 6×His-tagged VEGFR2 kinase domain construct expressed by baculovirus; 6xHis (N); made in house
Experimental: Inhibition of VEGFR2 kinase activity by compounds disclosed herein was quantified by measuring the amount of [^33P] incorporated into the substrate in the presence of a test compound. Specifically, a reaction mixture with a final volume of 25 μL and containing 6.25 ng of VEGFR2 kinase (obtained by purifying recombinant N-terminal 6×His-tagged VEGFR2 kinase domain construct expressed by baculovirus), 5 μg of substrate (Poly (Glu-Tyr, 4:1, Sigma)), kinase reaction buffer (20 mM MOPS pH 7.0, 1 mM EDTA, 5% glycerol, 0.01% Brij-35, 0.1% β-mercaptoethanol, 1 mg/mL BSA, 100 μM ATP, 0.1 μCi per well [^33P]-γ-ATP (2,500-3,000 Ci/mmol), and 500 nM test compound (final concentration of DMSO was 4%) or 4% DMSO alone (as the control sample), was incubated at 30° C. for 30 minutes. The reaction was then stopped by adding 5 μL of 3% phosphoric acid solution. The resultant solution was transferred to and harvested by a filter plate (UniFilter-96 GF/B, PerkinElmer). The filter plate was then washed 20 times with d.d. H2O for 5 min followed by the addition of 30 μL of MicroScint™-20 Cocktail (PerkinElmer). After the plate was sealed, the retained radioactivity on the filter was counted using a TopCount scintillation detector (PerkinElmer). The percentage of inhibition rate of the test compound was calculated by dividing the retained radioactivity of the test sample with the retained radioactivity of the control sample and shown in Table 3.

Flt3 kinase = target: T3, Flt3 kinase (Homo sapiens, UniProt P36888); experiment: Flt3 kinase assay (33P incorporation into Poly(Glu-Tyr)); settings: 100 nM test compound; read-out: Inhibition at 100 nM (%) Flt-3
T3 construct: recombinant N-terminal 6×His-tagged Flt3 kinase domain construct expressed from baculovirus; 6xHis (N); made in house
T3 sequence (P36888 610-943 limits assumed): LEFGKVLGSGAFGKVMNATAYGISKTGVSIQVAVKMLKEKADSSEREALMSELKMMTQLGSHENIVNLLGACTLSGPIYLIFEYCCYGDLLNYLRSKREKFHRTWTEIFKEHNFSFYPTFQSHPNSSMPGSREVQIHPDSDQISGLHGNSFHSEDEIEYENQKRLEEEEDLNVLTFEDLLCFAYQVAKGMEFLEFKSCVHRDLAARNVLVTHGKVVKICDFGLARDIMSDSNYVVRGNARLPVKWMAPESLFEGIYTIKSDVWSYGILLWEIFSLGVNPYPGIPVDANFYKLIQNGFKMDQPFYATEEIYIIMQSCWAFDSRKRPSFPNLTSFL
Experimental: Inhibition of Flt3 kinase activity by compounds disclosed herein was quantified by measuring the amount of [^33P] incorporated into the substrate in the presence of a test compound. Briefly, a reaction mixture of 25 μL final volume containing 5 ng of Flt3 kinase (obtained by purifying recombinant N-terminal 6×His-tagged Flt3 kinase domain construct expressed from baculovirus), 5 μg of the substrate (Poly (Glu-Tyr, 4:1, Sigma)), kinase reaction buffer (20 mM MOPS pH 7.0, 1 mM EDTA, 5% glycerol, 0.01% Brij-35, 0.1% β-mercaptoethanol, 1 mg/mL BSA, 100 μM ATP, 0.1 μCi per well [^33P]-γ-ATP (2,500-3,000 Ci/mmol)), and a test compound (100 nM, diluted with 4% DMSO) or DMSO (as the control) was incubated at 30° C. for 30 minutes. The reaction was stopped by adding 5 μL of 3% phosphoric acid solution. The resultant reaction solution was then harvested onto a filter plate (UniFilter-96 GF/B, PerkinElmer), washed 20 times for 5 min with d.d. H2O, and followed by the addition of 30 μL of MicroScint™-20 Cocktail (PerkinElmer). The plate was then sealed and counted using a TopCount scintillation detector (PerkinElmer). The percentage of inhibition rate of the test compound was calculated by dividing the retained radioactivity of the test sample with the retained radioactivity of the control sample and shown in Table 3.

T2 sequence (P35968 834-1162 limits assumed): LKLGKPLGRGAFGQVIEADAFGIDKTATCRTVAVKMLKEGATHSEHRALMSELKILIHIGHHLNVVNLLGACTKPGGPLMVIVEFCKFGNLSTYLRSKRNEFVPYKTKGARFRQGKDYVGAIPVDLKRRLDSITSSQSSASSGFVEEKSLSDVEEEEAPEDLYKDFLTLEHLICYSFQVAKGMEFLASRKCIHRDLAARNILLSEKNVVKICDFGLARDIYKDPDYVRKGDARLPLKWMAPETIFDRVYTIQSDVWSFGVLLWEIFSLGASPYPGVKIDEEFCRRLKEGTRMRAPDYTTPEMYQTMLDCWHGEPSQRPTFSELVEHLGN
T1 sequence (P08581 1078-1345 limits assumed): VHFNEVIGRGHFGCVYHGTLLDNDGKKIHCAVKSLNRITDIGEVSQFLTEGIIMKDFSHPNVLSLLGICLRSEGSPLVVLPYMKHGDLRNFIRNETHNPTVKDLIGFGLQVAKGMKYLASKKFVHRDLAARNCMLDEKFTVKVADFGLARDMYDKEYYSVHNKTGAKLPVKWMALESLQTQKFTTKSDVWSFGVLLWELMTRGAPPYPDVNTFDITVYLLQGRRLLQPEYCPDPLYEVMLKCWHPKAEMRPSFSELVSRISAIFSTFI

inhibition at 0.5 µM (c-Met kinase) [%] | inhibition at 0.5 µM (VEGFR2 kinase) [%] | inhibition at 0.1 µM (Flt3 kinase) [%] | Inhibition at 500 nM (%) c-Met (c-Met kinase; 0.5 µM) [%] | Structure (SMILES)
26 | 79.7 | 90.2 | – | CCOC(=O)CCc1c(/C=C2\C(=O)Nc3ccccc32)[nH]c2c1C(=O)CCC2 [DCB-70049, (Z)-3-((3-(3-ethoxy-3-oxopropyl)-4-oxo-4,5,6,7-tetrahydro-1H-indol-2-yl)methylene)indolin-2-one]
– | 85.2 | 97.3 | 17.4 | CCOC(=O)CCc1c(/C=C2\C(=O)Nc3ccc(F)cc32)[nH]c2c1C(=O)CCC2 [DCB-70053, (Z)-5-fluoro-3-((3-(3-ethoxy-3-oxopropyl)-4-oxo-4,5,6,7-tetrahydro-1H-indol-2-yl)methylene)indolin-2-one]
30.9 | 89.6 | 99.2 | – | CCOC(=O)CCc1c(/C=C2\C(=O)Nc3ccc(Br)cc32)[nH]c2c1C(=O)CCC2 [DCB-70056, (Z)-5-bromo-3-((3-(3-ethoxy-3-oxopropyl)-4-oxo-4,5,6,7-tetrahydro-1H-indol-2-yl)methylene)indolin-2-one]
9.7 | 46.3 | 55.1 | – | CCOC(=O)CCc1c(/C=C2\C(=O)Nc3ccc(-c4ccc(O)c(OC)c4)cc32)[nH]c2c1C(=O)CCC2 [DCB-70058, (Z)-5-(4-hydroxyl-3-methoxyphenyl)-3-((3-(3-ethoxy-3-oxopropyl)-4-oxo-4,5,6,7-tetrahydro-1H-indol-2-yl)methylene)indolin-2-one]
15.2 | 94.3 | 38.6 | – | CCOC(=O)CCc1c(/C=C2\C(=O)Nc3cc(-c4ccc(O)cc4)ccc32)[nH]c2c1C(=O)CCC2 [DCB-70066, (Z)-6-(4-hydroxyphenyl)-3-((3-(3-ethoxy-3-oxopropyl)-4-oxo-4,5,6,7-tetrahydro-1H-indol-2-yl)methylene)indolin-2-one]
17 | 27.2 | 21.2 | – | CCOC(=O)CCc1c(/C=C2\C(=O)Nc3ccc(-c4ccc(OC)c(OC)c4)cc32)[nH]c2c1C(=O)CCC2 [DCB-70067, (Z)-5-(3,4-dimethoxyphenyl)-3-((3-(3-ethoxy-3-oxopropyl)-4-oxo-4,5,6,7-tetrahydro-1H-indol-2-yl)methylene)indolin-2-one]

Second part, the compound before the results:

Structure (SMILES) | inhibition at 0.5 µM (c-Met kinase) [%] | inhibition at 0.5 µM (VEGFR2 kinase) [%] | inhibition at 0.1 µM (Flt3 kinase) [%] | Inhibition at 500 nM (%) c-Met (c-Met kinase; 0.5 µM) [%]
O=C(O)CCc1c(/C=C2\C(=O)Nc3ccccc32)[nH]c2c1C(=O)CCC2 [DCB-70052, (Z)-3-((3-carboxyethyl-4-oxo-4,5,6,7-tetrahydro-1H-indol-2-yl)methylene)indolin-2-one] | 14.3 | 85 | 72.1 | –
O=C(O)CCc1c(/C=C2\C(=O)Nc3ccc(F)cc32)[nH]c2c1C(=O)CCC2 [DCB-70055, (Z)-5-fluoro-3-((3-carboxyethyl-4-oxo-4,5,6,7-tetrahydro-1H-indol-2-yl)methylene)indolin-2-one] | 21.7 | 91.2 | 86.5 | –
O=C(O)CCc1c(/C=C2\C(=O)Nc3ccc(Br)cc32)[nH]c2c1C(=O)CCC2 [DCB-70057, (Z)-5-bromo-3-((3-carboxyethyl-4-oxo-4,5,6,7-tetrahydro-1H-indol-2-yl)methylene)indolin-2-one] | 19.3 | 94.9 | 92.8 | –
COc1cc(-c2ccc3c(c2)/C(=C/c2[nH]c4c(c2CCC(=O)O)C(=O)CCC4)C(=O)N3)ccc1O [DCB-70059, (Z)-5-(4-hydroxyl-3-methoxyphenyl)-3-((3-carboxyethyl-4-oxo-4,5,6,7-tetrahydro-1H-indol-2-yl)methylene)indolin-2-one] | 16.3 | 70.9 | 21.5 | –
CCOC(=O)CCc1c(/C=C2\C(=O)Nc3ccc([N+](=O)[O-])cc32)[nH]c2c1C(=O)CCC2 [DCB-70062, (Z)-5-nitro-3-((3-(3-ethoxy-3-oxopropyl)-4-oxo-4,5,6,7-tetrahydro-1H-indol-2-yl)methylene)indolin-2-one] | 34.1 | 60.2 | 91.6 | –
O=C(O)CCc1c(/C=C2\C(=O)Nc3ccc([N+](=O)[O-])cc32)[nH]c2c1C(=O)CCC2 [DCB-70063, (Z)-5-nitro-3-((3-carboxyethyl-4-oxo-4,5,6,7-tetrahydro-1H-indol-2-yl)methylene)indolin-2-one] | 19.9 | 82.7 | 74.7 | –
CCOC(=O)CCc1c(/C=C2\C(=O)Nc3ccc(S(=O)(=O)NC)cc32)[nH]c2c1C(=O)CCC2 [DCB-70064, (Z)-5-(N-methylsulfamoyl)-3-((3-(3-ethoxy-3-oxopropyl)-4-oxo-4,5,6,7-tetrahydro-1H-indol-2-yl)methylene)indolin-2-one] | 48.1 | 39 | 25.7 | –
CNS(=O)(=O)c1ccc2c(c1)/C(=C/c1[nH]c3c(c1CCC(=O)O)C(=O)CCC3)C(=O)N2 [DCB-70065, (Z)-5-(N-methylsulfamoyl)-3-((3-carboxyethyl-4-oxo-4,5,6,7-tetrahydro-1H-indol-2-yl)methylene)indolin-2-one] | 29.1 | 47.9 | -6.8 | –
COc1ccc(-c2ccc3c(c2)/C(=C/c2[nH]c4c(c2CCC(=O)O)C(=O)CCC4)C(=O)N3)cc1OC [DCB-70068, (Z)-5-(3,4-dimethoxyphenyl)-3-((3-carboxyethyl-4-oxo-4,5,6,7-tetrahydro-1H-indol-2-yl)methylene)indolin-2-one] | 18 | 48.4 | 15.6 | –
CCOC(=O)CCc1c(/C=C2\C(=O)Nc3ccc(-c4cc5ccccc5s4)cc32)[nH]c2c1C(=O)CCC2 [DCB-70069, (Z)-5-(benzo[b]thiophen-2-yl)-3-((3-(3-ethoxy-3-oxopropyl)-4-oxo-4,5,6,7-tetrahydro-1H-indol-2-yl)methylene)indolin-2-one] | -38 | 11.4 | 9.6 | –
O=C(O)CCc1c(/C=C2\C(=O)Nc3ccc(-c4cc5ccccc5s4)cc32)[nH]c2c1C(=O)CCC2 [DCB-70070, (Z)-5-(benzo[b]thiophen-2-yl)-3-((3-carboxyethyl-4-oxo-4,5,6,7-tetrahydro-1H-indol-2-yl)methylene)indolin-2-one] | 19.7 | 45.5 | 13.3 | –
O=C(O)CCc1c(/C=C2\C(=O)Nc3ccc(S(=O)(=O)Cc4ccccc4)cc32)[nH]c2c1C(=O)CCC2 [DCB-70071, (Z)-5-benzylsulfonyl-3-((3-carboxyethyl-4-oxo-4,5,6,7-tetrahydro-1H-indol-2-yl)methylene)indolin-2-one] | 65.3 | 91.8 | 21.2 | –
